Test results from US4191753A, “Anti-hypertensive peptide analogs” (University of Miami, priority 1978, dated 1980).
Where a SMILES comes first, the peptide text is derived from it.

Experiments:
[1] = cited from earlier work
patients = details: cited from earlier work
[2] = molecular target: T1, human urinary angiotensin converting enzyme (Homo sapiens, UniProt P12821); assay: Inhibition of hydrolysis of [3H]benzoyl-Gly-His-Leu by human urinary angiotensin converting enzyme; assay type: biochemical; details: [3H]benzoyl-Gly-His-Leu 100 μM (approximately one-half of Km), 37° C., 15 min., pH 8.0; read-out: I50
T1 construct: human urinary angiotensin converting enzyme, prepared as described by Ryan, J., et al; from tissue; host or cells: human urine
T1 sequence (P12821 30-1306): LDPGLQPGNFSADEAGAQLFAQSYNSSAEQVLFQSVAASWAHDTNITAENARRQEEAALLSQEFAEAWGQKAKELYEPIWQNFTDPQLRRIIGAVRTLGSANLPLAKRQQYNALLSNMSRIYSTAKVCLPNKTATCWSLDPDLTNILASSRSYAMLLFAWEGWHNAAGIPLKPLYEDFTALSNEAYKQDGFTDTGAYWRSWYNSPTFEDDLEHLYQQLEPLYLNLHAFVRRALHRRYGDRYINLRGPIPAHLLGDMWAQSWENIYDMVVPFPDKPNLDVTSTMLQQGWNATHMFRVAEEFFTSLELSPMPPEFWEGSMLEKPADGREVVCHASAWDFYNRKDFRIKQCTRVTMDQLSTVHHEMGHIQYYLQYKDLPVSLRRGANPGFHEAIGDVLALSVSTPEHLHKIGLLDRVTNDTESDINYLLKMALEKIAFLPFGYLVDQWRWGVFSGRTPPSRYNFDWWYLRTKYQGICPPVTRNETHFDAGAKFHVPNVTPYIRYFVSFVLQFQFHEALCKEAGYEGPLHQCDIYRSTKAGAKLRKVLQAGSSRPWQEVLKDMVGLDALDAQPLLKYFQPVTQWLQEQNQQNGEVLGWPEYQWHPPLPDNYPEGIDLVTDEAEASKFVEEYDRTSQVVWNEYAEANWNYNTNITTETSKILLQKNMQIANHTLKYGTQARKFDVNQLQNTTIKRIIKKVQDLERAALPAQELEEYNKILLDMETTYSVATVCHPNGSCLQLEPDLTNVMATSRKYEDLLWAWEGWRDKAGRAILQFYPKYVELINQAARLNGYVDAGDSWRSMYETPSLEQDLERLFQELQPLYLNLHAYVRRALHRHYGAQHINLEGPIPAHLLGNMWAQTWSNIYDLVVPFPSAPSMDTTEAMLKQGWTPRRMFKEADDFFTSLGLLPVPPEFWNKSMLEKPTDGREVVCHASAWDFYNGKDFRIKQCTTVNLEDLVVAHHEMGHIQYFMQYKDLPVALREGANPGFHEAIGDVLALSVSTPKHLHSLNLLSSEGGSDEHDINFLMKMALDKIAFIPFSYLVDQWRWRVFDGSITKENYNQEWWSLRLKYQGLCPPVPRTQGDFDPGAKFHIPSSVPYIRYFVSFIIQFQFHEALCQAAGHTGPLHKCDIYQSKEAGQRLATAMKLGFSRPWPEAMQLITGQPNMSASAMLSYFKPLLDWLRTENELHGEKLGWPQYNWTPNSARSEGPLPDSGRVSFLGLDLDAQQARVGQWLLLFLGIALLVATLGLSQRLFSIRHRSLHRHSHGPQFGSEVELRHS
Experimental: ΔPro^3 -BPP9a, ΔPro^5 -BPP9a, ΔPro^8 -BPP9a, and ΔPro^9 -BPP9a were each compared with BPP9a (<Glu-Trp-Pro-Arg-Pro-Gln-Ile-Pro-Pro; also known as SQ 20,881) for their abilities to inhibit the hydrolysis of [^3 H]benzoyl-Gly-His-Leu by human urinary angiotensin converting enzyme, prepared as described by Ryan, J., et al., Tissue and Cell 10, 555 (1978). A standard amount of enzyme (the amount required to hydrolyze 8% of substrate during the course of incubation at 37° C. for 15 min.) was incubated with [^3 H]benzoyl-Gly-His-Leu in a final reaction volume of 100 μl or 110 μl. The reaction mixture contained 0.05 M Hepes buffer, pH 8.0, 0.1 M NaCl, 0.75 M Na2 SO4, [^3 H]-benzoyl-Gly-His-Leu (100 μM at 10 mCi/mmole, enzyme and varying concentrations of inhibitor, from […]. Net enzyme activity was measured in terms of the rate of formation of [^3 H]benzoyl-glycine (^3 H-hippuric acid). Under the conditions of the assay, the initial substrate concentration is approximately one-half of Km. Results are expressed as I50 values, i.e., the concentration of a given inhibitor required to reduce enzyme activity by half.
These factors include the source of enzyme, its purity, the substrate used and its concentration, and the composition of the assay buffer. […] For example, Cushman, et al., supra, reported an I50 value for BPP9a of approximately 1000 nM, whereas Dorer, F.E., et al., Biochim. Biophys. Acta 429, 220 (1976) reported I50 values in the range 12nM-15nM. The sources of such variations are not known.

ACE [3] = molecular target: ACE (Homo sapiens, UniProt P12821); assay: biochemical
ACE (Homo sapiens, UniProt P12821), sequence (P12821 30-1306, species assumed): as the sequence (P12821 30-1306) above

ACE [4] = molecular target: T2, ACE (Oryctolagus cuniculus, UniProt P12822); details: read-out: I50 reported by Cushman, et al.; literature value; cited from earlier work
T2 sequence (P12822 34-1310): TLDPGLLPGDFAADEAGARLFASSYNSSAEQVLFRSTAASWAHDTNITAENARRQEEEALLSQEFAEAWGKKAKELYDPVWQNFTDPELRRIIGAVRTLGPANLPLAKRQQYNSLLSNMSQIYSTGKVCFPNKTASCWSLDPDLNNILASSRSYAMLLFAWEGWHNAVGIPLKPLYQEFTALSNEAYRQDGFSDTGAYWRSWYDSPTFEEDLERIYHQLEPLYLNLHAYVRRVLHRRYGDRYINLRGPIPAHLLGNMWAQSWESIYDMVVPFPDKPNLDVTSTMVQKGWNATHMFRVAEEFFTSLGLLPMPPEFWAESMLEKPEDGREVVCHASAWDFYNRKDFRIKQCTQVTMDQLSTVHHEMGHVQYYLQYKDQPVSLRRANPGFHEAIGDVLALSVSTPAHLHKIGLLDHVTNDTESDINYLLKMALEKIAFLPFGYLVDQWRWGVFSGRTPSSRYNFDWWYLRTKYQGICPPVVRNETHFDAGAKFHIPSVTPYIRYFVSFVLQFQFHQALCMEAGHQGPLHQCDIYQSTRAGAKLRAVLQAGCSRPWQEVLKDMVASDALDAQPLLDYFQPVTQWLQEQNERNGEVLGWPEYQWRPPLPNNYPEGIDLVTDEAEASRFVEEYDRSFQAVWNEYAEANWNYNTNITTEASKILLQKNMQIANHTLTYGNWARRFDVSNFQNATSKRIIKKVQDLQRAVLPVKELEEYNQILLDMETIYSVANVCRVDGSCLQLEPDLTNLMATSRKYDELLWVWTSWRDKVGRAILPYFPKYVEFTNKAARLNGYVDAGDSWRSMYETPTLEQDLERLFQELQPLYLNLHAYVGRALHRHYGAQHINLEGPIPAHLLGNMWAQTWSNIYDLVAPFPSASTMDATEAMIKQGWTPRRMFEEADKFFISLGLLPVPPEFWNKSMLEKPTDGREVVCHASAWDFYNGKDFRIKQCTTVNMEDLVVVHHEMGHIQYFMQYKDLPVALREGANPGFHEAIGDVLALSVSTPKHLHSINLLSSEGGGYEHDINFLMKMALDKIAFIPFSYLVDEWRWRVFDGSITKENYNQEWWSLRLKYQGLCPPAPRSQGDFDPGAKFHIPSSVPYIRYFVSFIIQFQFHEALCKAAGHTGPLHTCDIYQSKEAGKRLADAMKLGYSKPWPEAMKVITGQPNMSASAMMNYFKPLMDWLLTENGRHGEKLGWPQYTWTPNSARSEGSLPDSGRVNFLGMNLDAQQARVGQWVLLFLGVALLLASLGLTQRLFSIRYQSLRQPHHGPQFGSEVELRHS

[5] = test system: patients with hypertension; details: cited from earlier work
guinea pigs = assay: Mean arterial blood pressure of guinea pigs anesthetized with pentobarbital; assay type: in vivo, guinea pig; details: single intravenous injection, 2 mg; for ill effects in test animals: blood pressure reduced to shock levels; for abnormalities in the electrocardiogram: Lead II monitored
Experimental: ΔPro^3 -BPP9a and ΔPro^5 -BPP9a were tested for their ability to reduce mean arterial blood pressure of guinea pigs anesthetized with pentobarbital, an anesthetic thought to activate the renin-angiotensin system. Female guinea pigs (500-700 g body wgt.) of the Ft. Detrick-Hartley strain were injected intraperitoneally with pentobarbital, 30 mg/kg. Tracheostomy was performed, and the animals were ventilated with a small animal respirator. A polyethylene cannula was inserted into a femoral vein, and heparin, 1,000 units, was injected. A second cannula was inserted into a femoral artery for measurement of arterial blood pressure. The arterial cannula was connected to a pressure transducer, and the transducer was connected to a polygraph. Lead II of the electrocardiogram was monitored continuously.
Each of three guinea pigs received a single intravenous injection of ΔPro^3 -BPP9a, 2 mg in 0.25 ml of 0.9% (w/v) NaCl. On average, mean arterial blood pressure fell by 57.2% (81.7 mmHg to 35 mmHg). The maximum reduction was achieved within 15 sec. of injection. Each of seven guinea pigs received a single intravenous injection of ΔPro^5 -BPP9a, 2 mg in 0.25 ml of saline.

In the case of C[C@H](CS)C(=O)N1CCCC1C(=O)O (stereo in doubt) [SQ 14,225, D-2-methyl-3-mercaptopropanoyl-L-proline], the stability in solution [1] is given as “instability of the drug in solution due to disulfide dimer formation”, the “patients known to benefit from ACE inhibitors who respond adversely” value (patients; human, in vivo) is given as no more than 11% and the oral effectiveness (patients; oral) is given as “effective orally”.

For CC[C@H](C)[C@H](NC(=O)[C@H](CCC(N)=O)NC(=O)[C@@H]1CCCN1C(=O)[C@H](CCCNC(=N)N)NC(=O)[C@@H]1CCCN1C(=O)[C@H](Cc1c[nH]c2ccccc12)NC(=O)[C@@H]1CCC(=O)N1)C(=O)N1CCC[C@H]1C(=O)N1CCC[C@H]1C(=O)O [BPP9a, <Glu-Trp-Pro-Arg-Pro-Gln-Ile-Pro-Pro], the IC50 [2] is given as 0.028 µM, the IC50 (ACE [3]) is given as roughly 0.028 µM and the IC50 (ACE [4]) is given as roughly 1 µM. The “side reactions of the type observed with SQ 14,225, in clinical use of BPP9a” value [5] was “have not been encountered previously”.

Work on NC(N)=NCCC[C@H](NC(=O)[C@H](Cc1ccccc1)NC(=O)[C@@H]1CCCN1C(=O)[C@H](CO)NC(=O)[C@H](Cc1ccccc1)NC(=O)CNC(=O)[C@@H]1CCCN1C(=O)[C@@H]1CCCN1C(=O)[C@@H](N)CCCN=C(N)N)C(=O)O [bradykinin, ArgProProGlyPheSerProPheArg] (H-RPPGFSPFR-OH) yielded an IC50 (ACE [3]) of roughly 0.5 µM.

In the case of CC[C@H](C)[C@H](NC(=O)[C@H](CCC(N)=O)NC(=O)[C@@H]1CCCN1C(=O)[C@H](CCCNC(=N)N)NC(=O)[C@@H]1C=CCN1C(=O)[C@H](Cc1c[nH]c2ccccc12)NC(=O)[C@@H]1CCC(=O)N1)C(=O)N1CCC[C@H]1C(=O)N1CCC[C@H]1C(=O)O [ΔPro^3 -BPP9a, <Glu-Trp-ΔPro-Arg-Pro-Gln-Ile-Pro-Pro], the IC50 [2] is reported as 0.0009 µM, the “increase in heart rate” value (guinea pigs) is reported as 0-10% and the “ill effects in test animals” value (guinea pigs) is reported as “no ill effects”. For the same molecule, the “abnormalities in the electrocardiogram” value (guinea pigs) was “no abnormalities were observed”.

In the case of CC[C@H](C)[C@H](NC(=O)[C@H](CCC(N)=O)NC(=O)[C@@H]1C=CCN1C(=O)[C@H](CCCNC(=N)N)NC(=O)[C@@H]1CCCN1C(=O)[C@H](Cc1c[nH]c2ccccc12)NC(=O)[C@@H]1CCC(=O)N1)C(=O)N1CCC[C@H]1C(=O)N1CCC[C@H]1C(=O)O [ΔPro^5 -BPP9a, <Glu-Trp-Pro-Arg-ΔPro-Gln-Ile-Pro-Pro], the IC50 [2] is reported as 0.0009 µM, the “increase in heart rate” value (guinea pigs) is reported as 0-10% and the “ill effects in test animals” value (guinea pigs) is reported as “no ill effects”. The “abnormalities in the electrocardiogram” value (guinea pigs) was “no abnormalities were observed”.

Molecule CC[C@H](C)[C@H](NC(=O)[C@H](CCC(N)=O)NC(=O)[C@@H]1CCCN1C(=O)[C@H](CCCNC(=N)N)NC(=O)[C@@H]1CCCN1C(=O)[C@H](Cc1c[nH]c2ccccc12)NC(=O)[C@@H]1CCC(=O)N1)C(=O)N1CC=C[C@H]1C(=O)N1CCC[C@H]1C(=O)O [ΔPro^8 -BPP9a, <Glu-Trp-Pro-Arg-Pro-Gln-Ile-ΔPro-Pro] has an IC50 [2] of 0.06 µM.

Molecule CC[C@H](C)[C@H](NC(=O)[C@H](CCC(N)=O)NC(=O)[C@@H]1CCCN1C(=O)[C@H](CCCNC(=N)N)NC(=O)[C@@H]1CCCN1C(=O)[C@H](Cc1c[nH]c2ccccc12)NC(=O)[C@@H]1CCC(=O)N1)C(=O)N1CCC[C@H]1C(=O)N1CC=C[C@H]1C(=O)O [ΔPro^9 -BPP9a, <Glu-Trp-Pro-Arg-Pro-Gln-Ile-Pro-ΔPro] has an IC50 [2] of 0.00015 µM.
